Columns and labels:
systolic blood pressure = test: Antihypertensive activity, reduction in systolic blood pressure, single oral medication, unanesthetized spontaneous hypertensive rat; format: in vivo; conditions: P.O., single dose, unanesthetized SH rat
Procedure: Antihypertensive activity was determined on the basis of the observed reduction in systolic blood pressure measured according to the method of H. Kersten et al., J. Lab. and Clin. Med. 32, 1090 (1947) following a single oral medication in the unanesthetized spontaneous hypertensive rat described by Okamato et al., Japan Circulation J. 27, 282 (1963).
^a AHD40 = single oral dose required to induce a 40 mm. average

[1] = tested on: cardiac contractile force; test: Cardiotonic test procedure II, intact anesthetized dog; format: in vivo, mongrel dogs
Procedure: The efficacy of this compound was judged, in vitro, on the basis of percent increase in contractile force in isolated cat atria and papillary muscle and, in vitro, on the basis of percent increase in cardiac contractile force in the intact anesthetized dog. The in vivo test procedure used is described as follows: Mongrel dogs of both sexes and varying in weight from 9 to 15 kg. were anesthetized with 30 mg./kg. pentobarbital sodium administered intravenously. The trachea was exposed and cannulated. The tracheal cannula was then attached to a Harvard respiratory pump using room air. The right femoral artery and vein were cannulated. […] The venous cannula was used for the intravenous administration of drugs. Pin electrodes were attached to the right forelimb and left hindlimb. The electrodes were then connected to a Grass polygraph for the continuous recording of the standard limb lead II electrocardiogram. A ventro-dorsal incision at the third inter-costal space was made, the ribs laterally retracted and the pericardium slit open to expose the myocardium. The base of the aorta was dissected and a flow probe was fitted around it. The flow probe was attached to a square wave electromagnetic flowmeter (Carolina Medical Electronics). The flowmeter was then connected to a Grass polygraph for the continuous recording of aortic blood flow. This flow was used as an index of cardiac output (actual cardiac output is aortic blood flow+coronary blood flow). Cardiac contractile force was measured by suturing a Walton-Brodie strain gauge to the wall of the right ventricle. At the end of the surgical procedure, the animal was left to rest and equilibrate for one hour with continuous recording of blood pressure, EKG, cardiac contractile force and aortic blood flow. After the equilibration period, the vehicle or the drug dissolved in the vehicle was administered by intravenous infusion (i.v. inf.), intravenous bolus (i.v. bol.) or intraduodenally (i.d.) and the response of all the parameters measured to drug administration was recorded continuously for different periods of times depending on the route of drug administration. When the route of administration was i.v. inf., the drug was administered until a peak effect was reached and infusion was then maintained for ten minutes. The above-described test systems were standardized using dopamine.

isolated cat atria = test: Cardiotonic test procedure I, isolated cat atria; conditions: for Increase in right atrial force / Increase in right atrial rate: in vitro
Procedure: The efficacy of this compound was judged, in vitro, on the basis of percent increase in contractile force in isolated cat atria and papillary muscle and, in vitro, on the basis of percent increase in cardiac contractile force in the intact anesthetized dog. Male cats weighing from 0.8 to 1.5 kg. were anesthetized with α-chloralose (80 mg./kg. i.p.). The chest was opened, the heart excised and the two atria dissected. A silk suture was tied to each of two opposite sides of the right atrium. One side of the atrium was tied to a glass rod and then mounted in a 50 ml. organ bath filled with Tyrode's solution. […] The transducer was then connected to a Grass polygraph and the force and rate of atrial contraction was recorded continuously. The left atrium was treated similarly using silver wire instead of silk sutures. The silver wire also served as a stimulating electrode. Both atria were mounted in the same bath. The right atrium was beating spontaneously due to the presence of the sinoatrial node, while the left atrium was stimulated electrically at a rate of 3 beats/sec. by suprathreshold rectangular pulses of 5 millisecond duration. The Tyrode's solution bathing the atria was of the following composition (in mM): NaCl 136.87, KCl 5.36, NaH2 PO4 0.41, CaCl2 1.80, MgCl2 6H2 O 1.05, NaHCO3 11.90, glucose 5.55 and EDTA 0.04. […] The preparation was left to equilibrate for one hour before any drug was added. The bathing fluid was changed 3 to 4 times during the equilibration time. At the end of equilibration period, the drug dissolved in a vehicle or the vehicle alone was added to the tissue bath and the full response recorded. The vehicle used was Tyrode' s solution to which, if required, sufficient acid was added to cause solution of the drug. […] Generally, a dose response study of at least 3 doses was done in the same preparation.

β-adrenergic = β-adrenergic blocking activity, inhibition of isoproterenol-elicited heart rate increase in pentobarbitalized dog; format: in vivo; conditions: i.v.
Procedure: The β-adrenergic blocking activity was determined in the pentobarbitalized dog as judged by the ability of the test compound to inhibit the elevation in heart rate elicited by a 0.5 mcg./kg. i.v. injection of isoproterenol.
^e AED50 = approximate intravenous dose required to cause 50%

arrhythmia = test: Antiarrhythmic activity (in words, test not specified); conditions: in vivo
Procedure: The test procedures were carried out as follows.

papillary muscle = test: Cardiotonic test procedure IB, isolated cat papillary muscle; conditions: in vitro
Procedure: The efficacy of this compound was judged, in vitro, on the basis of percent increase in contractile force in isolated cat atria and papillary muscle and, in vitro, on the basis of percent increase in cardiac contractile force in the intact anesthetized dog. Male cats 0.8 to 1.5 kg. were anethetized with α-chloralose (80 mg./kg. i.p.). The chest was opened and the heart excised. The heart was dipped and shaken in Tyrode's solution for the removal of blood from the cavities. The right ventricle was then slit open and the small and thin (about 1 mm. in diameter and 4 to 7 mm. in length) papillary muscles were dissected out. A silver wire was attached to each of the two ends of the papillary muscle. The ventricular end was attached to a platinum electrode and mounted in a tissue bath containing Tyrode's solution described above. The silver wire on the valvular end of the muscle was attached to a force displacement transducer for the measurement of the force and rate of muscle contraction. The muscle was stimulated at a rate of 3 beats/sec. by suprathreshold rectangular pulses of 5 millisecond duration. The rest of the procedure was continued as described above.

blood pressure = test: Antihypertensive activity, sustained lowering of blood pressure, repeated oral medication, unanesthetized trained renal hypertensive dog; format: in vivo
Text: Antihypertensive activity was also judged on the basis of sustained reduction of blood pressure observed in the unanesthetized trained renal hypertensive dog following repeated oral medication according to the procedure described by Lape et al., Arch.
^b MED10 = minimum repeated oral daily dose required to effect a

COc1ccc(CCC(C)NCC(=O)c2ccc(O)c([S+](C)[O-])c2)cc1.Cl (stereo not shown) [Example 26B, 4'-hydroxy-2-[3-(4-methoxyphenyl)-1-methylpropyl]amino-3'-(methylsulfinyl)-acetophenone hydrochloride]
Antihypertensive activity SH Rat AHD40 (single oral dose required to induce a 40 mm. average reduction in systolic blood pressure) (systolic blood pressure): ca. 40.0 mg./kg. | Increase in cardiac contractile force ([1]; 1.0 mg./kg., first series): 22% | Increase in cardiac contractile force ([1]; 1.0 mg./kg., second, similar series): 4% | Increase in cardiac contractile force ([1]; 3.0 mg./kg., first series): 25% | Increase in cardiac contractile force ([1]; 3.0 mg./kg., second, similar series): 12% | Increase in cardiac contractile force ([1]; 10.0 mg./kg., first series): 59% | Increase in cardiac contractile force ([1]; 10.0 mg./kg., second, similar series): 50% | Increase in right atrial force (isolated cat atria; 10 /ml.): 1% | Increase in right atrial rate (isolated cat atria; 10 /ml.): 0% | Increase in right atrial force (isolated cat atria; 30 /ml.): 5% | Increase in right atrial rate (isolated cat atria; 30 /ml.): 3% | Increase in right atrial force (isolated cat atria; 100 /ml.): 6% | Increase in right atrial rate (isolated cat atria; 100 /ml.): 8% | Cardiotonic activity (in words) (isolated cat atria; one or more of the cardiotonic test procedures): cardiotonic activity | Actual percentage inhibition of heart rate increase above control level observed at the indicated dose (β-adrenergic; 1.0 mg./kg.): 18% | Dog β-blockade AED50 (approximate intravenous dose for 50% inhibition of isoproterenol-elicited heart rate increase) (β-adrenergic; pentobarbitalized dog): > 1.0 mg/kg | Antiarrhythmic activity (in words) (arrhythmia): antiarrhythmic activity | Increase in papillary muscle force (papillary muscle; 10 /ml.): 7% | Increase in papillary muscle force (papillary muscle; 30 /ml.): 23% | Increase in papillary muscle force (papillary muscle; 100 /ml.): 38% | Renal Hypertensive Dog MED10 (minimum repeated oral daily dose for sustained lowering of blood pressure of 10% or greater) (blood pressure; administered once per day): > 20 mg/kg | Actual percentage reduction in blood pressure observed at the indicated dose (blood pressure; once per day, 20 mg./kg.): 0

From patent publication US4374149A, “α-{[(Arylalkyl)amino]alkyl}-4-hydroxy-3-(lower-alkylsul finyl)benzenemethanols” (Sterling Drug Inc., priority 1978, dated 1983)
